Assay results taken from US12685312B2, “Sulfonamide apyrase inhibitors” (Texas Crop Science, Inc., priority 2022, dated 2026).

These molecules were tested on apyrase (assay: Screen for apyrase inhibitors (Method 1, in vitro phosphate-release absorbance assay)). Settings: inhibitor conc at 1 mM stock, 1 hr room temperature, absorbance 630 nm; rounded average of two assay results.
Assay type: biochemical
Summary of the method: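 Phosphate-release colorimetric assay (Windsor method) in 60 mM Hepes, 3 mM MgCl2, 3 mM CaCl2, 3 mM ATP, pH 6.5, with compound or DMSO control added. Released phosphate developed with ammonium molybdate and ascorbic acid/TCA, then stopped with citrate/acetic acid.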

| Structure (SMILES) | % Inhibition of Apyrase [%] |
| --- | --- |
| O=C(Nc1cccc([N+](=O)[O-])c1)c1ccc(Br)c(S(=O)(=O)Nc2ccc(F)cc2)c1 [I-19, 4-bromo-3-(N-(4-fluorophenyl)sulfamoyl)-N-(3-nitrophenyl)benzamide] | 50 |
| O=C(Nc1cccc([N+](=O)[O-])c1)c1ccc(Br)c(S(=O)(=O)Nc2ccccc2)c1 [I-34, 4-bromo-N-(3-nitrophenyl)-3-(N-phenylsulfamoyl)benzamide] | 18 |
| COc1ccc([N+](=O)[O-])cc1NS(=O)(=O)c1cccc(C(=O)Nc2ccc(F)c([N+](=O)[O-])c2)c1 [I-275, N-(4-fluoro-3-nitrophenyl)-3-(N-(2-methoxy-5-nitrophenyl)sulfamoyl)benzamide] | 46 |
| COc1ccc(C(CNC(=O)c2cccc(S(=O)(=O)Nc3ccc(Br)cc3)c2)N(C)C)cc1 (stereo not drawn) [I-279, 3-(N-(4-bromophenyl)sulfamoyl)-N-(2-(dimethylamino)-2-(4-methoxyphenyl)ethyl)benzamide] | 42 |
| COc1ccc(S(=O)(=O)N2CCc3ccccc32)cc1C(=O)Nc1ccc(C)c(C)c1 [I-593, N-(3,4-dimethylphenyl)-5-(indolin-1-ylsulfonyl)-2-methoxybenzamide] | 38 |
| CC1Cc2ccccc2N1S(=O)(=O)c1cccc(C(=O)Nc2cccc(S(N)(=O)=O)c2)c1 (stereo not drawn) [I-458, 3-((2-methylindolin-1-yl)sulfonyl)-N-(3-sulfamoylphenyl)benzamide] | 60 |
| Cc1ccc(NC(=O)c2ccccc2NS(=O)(=O)c2cccc(C(F)(F)F)c2)cc1 [I-231, N-(p-tolyl)-2-((3-(trifluoromethyl)phenyl)sulfonamido)benzamide] | 58 |
| O=C(Nc1ccc2c(c1)OCCCO2)c1cccc(S(=O)(=O)Nc2ccc3c(c2)OCO3)c1 [I-258, 3-(N-(benzo[d][1,3]dioxol-5-yl)sulfamoyl)-N-(3,4-dihydro-2H-benzo[b][1,4]dioxepin-7-yl)benzamide] | 61 |
| O=C(Nc1cccc2ncccc12)c1cccc(S(=O)(=O)N2CCc3ccccc32)c1 [I-596, 3-(indolin-1-ylsulfonyl)-N-(quinolin-5-yl)benzamide] | 35 |
| O=C(Nc1ccc(OCC(F)(F)F)cc1)c1cccc(S(=O)(=O)Nc2ccc3c(c2)OCO3)c1 [I-259, 3-(N-(benzo[d][1,3]dioxol-5-yl)sulfamoyl)-N-(4-(2,2,2-trifluoroethoxy)phenyl)benzamide] | 60 |
| O=C(O)CCc1ccc(S(=O)(=O)Nc2cccc(C(=O)Nc3cccc(C(F)(F)F)c3)c2)cc1 [I-324, 3-(4-(N-(3-((3-(trifluoromethyl)phenyl)carbamoyl)phenyl)sulfamoyl)phenyl)propanoic acid] | 41 |
| O=C(Nc1ccc(OC(F)(F)F)cc1)c1cccc(S(=O)(=O)Nc2ccc3c(c2)OCO3)c1 [I-200, 3-(N-(benzo[d][1,3]dioxol-5-yl)sulfamoyl)-N-(4-(trifluoromethoxy)phenyl)benzamide] | 78 |
| CC1Cc2ccccc2N1S(=O)(=O)c1cccc(C(=O)Nc2cccc3ncccc23)c1 (stereo not drawn) [I-602, 3-((2-methylindolin-1-yl)sulfonyl)-N-(quinolin-5-yl)benzamide] | 28 |
| O=C(Nc1cccc(C(F)(F)F)c1)c1ccc(S(=O)(=O)Nc2ccccc2F)cc1 [I-407, 4-(N-(2-fluorophenyl)sulfamoyl)-N-(3-(trifluoromethyl)phenyl)benzamide] | 30 |
| COc1ccc(N(C)S(=O)(=O)c2cccc(C(=O)Nc3ccc(Br)cc3)c2)cc1 [I-267, N-(4-bromophenyl)-3-(N-(4-methoxyphenyl)-N-methylsulfamoyl)benzamide] | 58 |
| O=C(Nc1ccc(F)cc1)c1ccc(S(=O)(=O)Nc2cccc(C(F)(F)F)c2)cc1 [I-193, N-(4-fluorophenyl)-4-(N-(3-(trifluoromethyl)phenyl)sulfamoyl)benzamide] | 74 |
| Cc1ccc(NC(=O)c2cccc(S(=O)(=O)Nc3ccc4c(c3)OCO4)c2)cc1 [I-245, 3-(N-(benzo[d][1,3]dioxol-5-yl)sulfamoyl)-N-(p-tolyl)benzamide] | 67 |
| O=C(Nc1ccc(Br)cc1)c1cccc(S(=O)(=O)Nc2cccc(C(F)(F)F)c2)c1 [I-250, N-(4-bromophenyl)-3-(N-(3-(trifluoromethyl)phenyl)sulfamoyl)benzamide] | 63 |
| Cc1cccc(C(=O)Nc2cccc(NS(=O)(=O)c3ccccc3)c2)c1[N+](=O)[O-] [I-345, 3-methyl-2-nitro-N-(3-(phenylsulfonamido)phenyl)benzamide] | 53 |
| COc1ccc([N+](=O)[O-])cc1NC(=O)c1cccc(S(=O)(=O)N2CCc3ccccc32)c1 [I-263, 3-(indolin-1-ylsulfonyl)-N-(2-methoxy-5-nitrophenyl)benzamide] | 59 |

Now from value to molecule:

| % Inhibition of Apyrase [%] | Structure (SMILES) |
| --- | --- |
| 53 | Cc1cc(Br)ccc1NC(=O)c1ccc(NS(=O)(=O)c2ccc(F)cc2)cc1 [I-933, N-(4-bromo-2-methylphenyl)-4-((4-fluorophenyl)sulfonamido)benzamide] |
| 71 | O=C(Nc1ccccn1)c1cccc(NS(=O)(=O)c2ccc(Br)cc2)c1 [I-627, 3-((4-bromophenyl)sulfonamido)-N-(pyridin-2-yl)benzamide] |
| 56 | O=C(Nc1cccc(S(=O)(=O)Nc2ccc(SC(F)F)cc2)c1)c1ccsc1 [I-728, N-(3-(N-(4-((difluoromethyl)thio)phenyl)sulfamoyl)phenyl) thiophene-3-carboxamide] |
| 16 | NC(=O)c1ccc(NC(=O)c2cccc(S(=O)(=O)N3CCc4ccccc43)c2)cc1 [I-607, N-(4-carbamoylphenyl)-3-(indolin-1-ylsulfonyl)benzamide] |
| 39 | CN(c1ccccc1)S(=O)(=O)c1ccccc1C(=O)Nc1cccc(C(N)=O)c1 [I-814, N-(3-carbamoylphenyl)-2-(N-methyl-N-phenylsulfamoyl)benzamide] |
| 79 | O=C(Nc1cccc(S(=O)(=O)Nc2ccc(Br)cc2)c1)c1ccsc1 [I-701, N-(3-(N-(4-bromophenyl)sulfamoyl)phenyl)thiophene-3-carboxamide] |
| 50 | O=C(Nc1ccc2c(c1)OCO2)c1ccc(NS(=O)(=O)c2ccc(F)cc2)cc1 [I-939, N-(benzo[d][1,3]dioxol-5-yl)-4-((4-fluorophenyl)sulfonamido)benzamide] |
| 30 | Cc1ccc(NS(=O)(=O)c2ccc(C(=O)N3CC4CCCN4Cc4ccccc43)cc2)cc1 (stereo not drawn) [I-891, 4-(2,3,5,10,11,11a-hexahydro-1H-benzo[e]pyrrolo[1,2-a][1,4]diazepine-10-carbonyl)-N-(p-tolyl)benzenesulfonamide] |
| 44 | Cc1occc1C(=O)Nc1cccc(S(=O)(=O)Nc2cccc(C(F)(F)F)c2)c1 [I-747, 2-methyl-N-(3-(N-(3-(trifluoromethyl)phenyl)sulfamoyl)phenyl) furan-3-carboxamide] |
| 67 | O=C(Nc1ccc(S(=O)(=O)Nc2ccccc2Cl)cc1)c1ccc(C(F)(F)F)cc1 [I-971, N-(4-(N-(2-chlorophenyl)sulfamoyl)phenyl)-4-(trifluoromethyl)benzamide] |
| 63 | COc1cccc(C(=O)Nc2ccc(S(=O)(=O)Nc3ccccc3OC)cc2)c1 [I-973, 3-methoxy-N-(4-(N-(2-methoxyphenyl)sulfamoyl)phenyl)benzamide] |
| 57 | COC(=O)c1c(C)[nH]c(C(=O)Nc2cccc(S(=O)(=O)Nc3cccc(C(F)(F)F)c3)c2)c1C [I-721, methyl 2,4-dimethyl-5-((3-(N-(3-(trifluoromethyl)phenyl)sulfamoyl)phenyl)carbamoyl)-1H-pyrrole-3-carboxylate] |
| 12 | Cc1csc(NC(=O)c2cccc(NS(=O)(=O)c3ccccc3)c2)n1 [I-667, N-(4-methylthiazol-2-yl)-3-(phenylsulfonamido)benzamide] |
| 47 | COc1ccccc1NC(=O)c1ccc(NS(=O)(=O)c2cccc(C#N)c2)cc1 [I-944, 4-((3-cyanophenyl)sulfonamido)-N-(2-methoxyphenyl)benzamide] |
| 60 | Cc1cc(S(=O)(=O)Nc2ccc(C(=O)N3c4ccccc4CC3C)cc2)ccc1F (stereo not drawn) [I-909, 4-fluoro-3-methyl-N-(4-(2-methylindoline-1-carbonyl)phenyl)benzenesulfonamide] |
| 59 | CCOc1ccc(NC(=O)c2ccc(NS(=O)(=O)c3ccccc3)cc2)cc1 [I-914, N-(4-ethoxyphenyl)-4-(phenylsulfonamido)benzamide] |
| 56 | CCOc1ccc(S(=O)(=O)Nc2cccc(C(=O)Nc3ccc(C)cn3)c2)cc1 [I-640, 3-((4-ethoxyphenyl)sulfonamido)-N-(5-methylpyridin-2-yl)benzamide] |
| 45 | O=C(Nc1nnc(C2CC2)s1)c1cccc(NS(=O)(=O)c2ccccc2)c1 [I-652, N-(5-cyclopropyl-1,3,4-thiadiazol-2-yl)-3-(phenylsulfonamido)benzamide] |
| 52 | CN(C1CCCCC1)S(=O)(=O)c1ccccc1NC(=O)c1c(F)cccc1F [I-824, N-(2-(N-cyclohexyl-N-methylsulfamoyl)phenyl)-2,6-difluorobenzamide] |
| 56 | CNC(=O)c1ccc(NC(=O)c2ccc(S(=O)(=O)Nc3ccc(C)cc3)cc2)cc1 [I-874, N-methyl-4-(4-(N-(p-tolyl)sulfamoyl)benzamido)benzamide] |
| 57 | O=C(Nc1ccc2c(c1)OCO2)c1ccc(NS(=O)(=O)c2ccc3c(c2)OCCO3)cc1 [I-921, N-(benzo[d][1,3]dioxol-5-yl)-4-((2,3-dihydrobenzo[b][1,4]dioxine)-6-sulfonamido)benzamide] |
| 23 | O=C(Nc1ccccc1NS(=O)(=O)c1ccc(F)cc1)c1ccc(Cl)cc1 [I-839, 4-chloro-N-(2-((4-fluorophenyl)sulfonamido)phenyl)benzamide] |
